Data from BigSolDB 2.1.

Nc1nnc[nH]1
solubility (mole fraction)
Conditions	in 1,4-dioxane	in 2-butanone	in NMP	in acetone	in acetonitrile	in ethanol	in ethyl acetate	in isopropanol	in methanol	in n-propanol
283.15 K	–	0.00169	0.145	0.00476	0.00061	0.0112	0.00147	0.00423	0.0306	0.0057
285.65 K	–	0.00191	0.152	0.00515	0.000713	0.0126	0.00168	0.00515	0.0329	0.007
288.15 K	0.00325	0.00214	0.159	0.00564	0.000871	0.0143	0.0019	0.00634	0.0353	0.00835
290.65 K	0.0037	0.00242	0.166	0.00617	0.00106	0.0165	0.00213	0.00755	0.038	0.00983
293.15 K	0.00404	0.00272	0.173	0.00672	0.00127	0.0187	0.00237	0.00912	0.0408	0.0116
295.65 K	0.00449	0.00306	0.181	0.00727	0.00153	0.0213	0.00263	0.0111	0.0437	0.0135
298.15 K	0.00506	0.00344	0.189	0.00793	0.00185	0.0239	0.00286	0.0135	0.0471	0.0162
300.65 K	0.00569	0.00386	0.198	0.00869	0.00224	0.0269	0.00313	0.0161	0.0501	0.0189
303.15 K	0.0064	0.00438	0.206	0.0095	0.00273	0.0302	0.00345	0.0191	0.0537	0.022
305.65 K	0.00708	0.00497	0.215	0.0104	0.00327	0.0338	0.00383	0.0217	0.0574	0.0255
308.15 K	0.00785	0.0056	0.225	0.0114	0.00384	0.0378	0.00421	0.0259	0.0613	0.0293
310.65 K	0.00865	0.00626	0.234	0.0123	0.00453	0.042	0.00458	0.0304	0.0654	0.0339
313.15 K	0.00952	0.00698	0.244	0.0133	0.00528	0.0469	0.00503	0.035	0.0701	0.0388
315.65 K	0.0103	0.00768	0.255	0.0142	0.00614	0.0516	0.00549	0.0398	0.0745	0.0448
318.15 K	0.0114	0.00844	0.267	0.0152	0.00698	0.0569	0.00602	0.0453	0.0794	0.0512
